The target of this experiment is Beta-3 Adrenergic Receptor (Homo sapiens (Human), UniProt P13945). The experiment in a line: Homogeneous Time-Resolved Fluorescence (HTRF) cAMP antagonist assay, IC50 determination. The note with it: CHO-K1 cells stably expressing recombinant receptor, isoproterenol at EC90. It is filed as cell-based. The gist of the method: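 CHO-K1 cells stably expressing receptor, 1500 cells/well, preincubated briefly with 10-point 5-fold compound series (top final typically 10 or 100 μM) in PBS with 1 mM IBMX, then challenged with isoproterenol at EC90 for 1 h at room temperature. cAMP read by HTRF against on-plate standard curve; IC50 from dose-response.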
A general note: Time-resolved FRET reads energy transfer from a long-lived donor to a nearby acceptor.

Each structure is given as a SMILES string.

Sequence of Beta-3 Adrenergic Receptor (P13945 whole entry, species assumed): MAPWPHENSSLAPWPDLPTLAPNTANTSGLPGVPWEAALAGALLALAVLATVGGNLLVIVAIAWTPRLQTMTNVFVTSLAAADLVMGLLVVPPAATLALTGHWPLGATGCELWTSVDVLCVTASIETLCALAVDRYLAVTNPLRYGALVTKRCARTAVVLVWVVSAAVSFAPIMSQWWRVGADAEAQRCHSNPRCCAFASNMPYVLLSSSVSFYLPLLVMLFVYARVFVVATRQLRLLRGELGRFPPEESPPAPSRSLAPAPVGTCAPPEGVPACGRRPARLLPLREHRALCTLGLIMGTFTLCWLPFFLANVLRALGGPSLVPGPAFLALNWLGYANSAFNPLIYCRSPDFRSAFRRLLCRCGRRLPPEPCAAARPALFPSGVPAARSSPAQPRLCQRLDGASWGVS

The IC50 is the concentration needed to halve the response being measured. For `CNS(=O)(=O)c1cccc(OC[C@@H](O)CN[C@H]2COC3(CCN(S(=O)(=O)c4cnc5ccc(C)cc5c4O)CC3)C2)c1` [Compound 533, 3-((S)-2-hydroxy-3-((R)-8-(4-hydroxy-6-methylquinolin-3-ylsulfonyl)-1-oxa-8-azaspiro[4.5]decan-3-ylamino)propoxy)-N-methylbenzenesulfonamide], the 50% inhibitory concentration (IC50) was 24.4 nM. For the molecule `CNS(=O)(=O)c1cccc(OC[C@@H](O)CNC2COC3(CCN(S(=O)(=O)c4ccc(OC)cc4)CC3)C2)c1` (stereo partly drawn) [Compound 18, 3-((2S)-2-hydroxy-3-(8-(4-methoxyphenylsulfonyl)-1-oxa-8-azaspiro[4.5]decan-3-ylamino)propoxy)-N-methylbenzenesulfonamide], the half-inhibitory concentration (IC50) amounted to 20.8 nM. As to `CCn1cc(-c2cccc(S(=O)(=O)N3CCC4(CC3)C[C@@H](NC[C@H](O)COc3cccc(S(=O)(=O)NC)c3)CO4)c2)cn1` [Compound 283, 3-((S)-3-((R)-8-(3-(1-ethyl-1H-pyrazol-4-yl)phenylsulfonyl)-1-oxa-8-azaspiro[4.5]decan-3-ylamino)-2-hydroxypropoxy)-N-methylbenzenesulfonamide], the 50% inhibitory concentration (IC50) came out at 84.6 nM. Consider `CNS(=O)(=O)c1cccc(OC[C@@H](O)CNC2COC3(CCN(S(=O)(=O)c4ccc(N5CCCCC5)nc4)CC3)C2)c1` (stereo partly drawn) [Compound 421, 3-((2S)-2-hydroxy-3-(8-(6-(piperidin-1-yl)pyridin-3-ylsulfonyl)-1-oxa-8-azaspiro[4.5]decan-3-ylamino)propoxy)-N-methylbenzenesulfonamide], for which the IC50 turned out to be 16.9 nM. For `CNS(=O)(=O)c1cccc(OC[C@@H](O)CN[C@H]2COC3(CCN(c4nccc(Cc5ccccc5)n4)CC3)C2)c1` [Compound 573, 3-((S)-3-((R)-8-(4-benzylpyrimidin-2-yl)-1-oxa-8-azaspiro[4.5]decan-3-ylamino)-2-hydroxypropoxy)-N-methylbenzenesulfonamide] the value was 115 nM; for `CNS(=O)(=O)c1cccc(OC[C@@H](O)CN[C@H]2COC3(CCN(S(=O)(=O)c4cccc(-c5ccc(S(N)(=O)=O)cc5)c4)CC3)C2)c1` [Compound 292, 3′-((R)-3-((S)-2-hydroxy-3-(3-(N-methylsulfamoyl)phenoxy)propylamino)-1-oxa-8-azaspiro[4.5]decan-8-ylsulfonyl)biphenyl-4-sulfonamide], 30.1 nM; for `CNS(=O)(=O)c1cccc(OC[C@@H](O)CN[C@H]2COC3(CCN(S(=O)(=O)c4cnc5c(c4)CCC5)CC3)C2)c1` [Compound 491, 3-((S)-3-((R)-8-(6,7-dihydro-5H-cyclopenta[b]pyridin-3-ylsulfonyl)-1-oxa-8-azaspiro[4.5]decan-3-ylamino)-2-hydroxypropoxy)-N-methylbenzenesulfonamide], 24.4 nM. Next, `CNS(=O)(=O)c1cccc(OC[C@@H](O)CNC2COC3(CCN(S(=O)(=O)c4ccc(Oc5ccccc5)nc4)CC3)C2)c1` (stereo partly drawn) [Compound 130, 3-((2S)-2-hydroxy-3-(8-(6-phenoxypyridin-3-ylsulfonyl)-1-oxa-8-azaspiro[4.5]decan-3-ylamino)propoxy)-N-methylbenzenesulfonamide]: 8.32 nM; `CCNS(=O)(=O)c1cccc(OC[C@@H](O)CNC2COC3(CCN(S(=O)(=O)c4ccc(OC)c(C)c4)CC3)C2)c1` (stereo partly drawn) [Compound 225, N-ethyl-3-((2S)-2-hydroxy-3-(8-(4-methoxy-3-methylphenylsulfonyl)-1-oxa-8-azaspiro[4.5]decan-3-ylamino)propoxy)benzenesulfonamide]: 186 nM. Consider `CC(C)(CO)NS(=O)(=O)c1cccc(OC[C@@H](O)CNC2COC3(CCN(S(=O)(=O)c4ccc5ccccc5c4)CC3)C2)c1` (stereo partly drawn) [Compound 49, N-(1-hydroxy-2-methylpropan-2-yl)-3-((2S)-2-hydroxy-3-(8-(naphthalen-2-ylsulfonyl)-1-oxa-8-azaspiro[4.5]decan-3-ylamino)propoxy)benzenesulfonamide], for which the IC50 came to 107 nM. For `CNS(=O)(=O)c1cccc(OC[C@@H](O)CNC2COC3(CCN(S(=O)(=O)c4cc(C)ccc4C#N)CC3)C2)c1` (stereo partly drawn) [Compound 180, 3-((2S)-3-(8-(2-cyano-5-methylphenylsulfonyl)-1-oxa-8-azaspiro[4.5]decan-3-ylamino)-2-hydroxypropoxy)-N-methylbenzenesulfonamide], the half-inhibitory concentration (IC50) stood at 29.8 nM. For `NS(=O)(=O)c1cccc(OC[C@@H](O)CN[C@H]2COC3(CCN(S(=O)(=O)c4c[nH]c5cc(F)ccc5c4=O)CC3)C2)c1` [Compound 555, 3-((S)-3-((R)-8-(7-fluoro-4-oxo-1,4-dihydroquinolin-3-ylsulfonyl)-1-oxa-8-azaspiro[4.5]decan-3-ylamino)-2-hydroxypropoxy)benzenesulfonamide] the value was 21.3 nM; for `CNS(=O)(=O)c1cccc(OC[C@@H](O)CNC2COC3(CCN(S(=O)(=O)c4cncc(-c5cnn(C)c5)c4)CC3)C2)c1` (stereo partly drawn) [Compound 342, 3-((2S)-2-hydroxy-3-(8-(5-(1-methyl-1H-pyrazol-4-yl)pyridin-3-ylsulfonyl)-1-oxa-8-azaspiro[4.5]decan-3-ylamino)propoxy)-N-methylbenzenesulfonamide], 42.6 nM; for `Cn1cc(S(=O)(=O)N2CCC3(CC2)C[C@@H](NC[C@H](O)COc2cccc(S(N)(=O)=O)c2)CO3)c(=O)c2ccccc21` [Compound 549, 3-((S)-2-hydroxy-3-((R)-8-(1-methyl-4-oxo-1,4-dihydroquinolin-3-ylsulfonyl)-1-oxa-8-azaspiro[4.5]decan-3-ylamino)propoxy)benzenesulfonamide], 140 nM. For `CNS(=O)(=O)c1cccc(OC[C@@H](O)CNC2COC3(CCN(S(=O)(=O)c4cccc(-c5ccncc5)c4)CC3)C2)c1` (stereo partly drawn) [Compound 106, 3-((2S)-2-hydroxy-3-(8-(3-(pyridin-4-yl)phenylsulfonyl)-1-oxa-8-azaspiro[4.5]decan-3-ylamino)propoxy)-N-methylbenzenesulfonamide] the value was 13.3 nM; for `CNS(=O)(=O)c1cccc(OC[C@@H](O)CNC2COC3(CCN(S(=O)(=O)c4ccc(NC(C)=O)cc4)CC3)C2)c1` (stereo partly drawn) [Compound 42, N-(4-(3-((S)-2-hydroxy-3-(3-(N-methylsulfamoyl)phenoxy)propylamino)-1-oxa-8-azaspiro[4.5]decan-8-ylsulfonyl)phenyl)acetamide], 31.9 nM; for `CCn1ccc(=O)c(S(=O)(=O)N2CCC3(CC2)C[C@@H](NC[C@H](O)COc2cccc(S(N)(=O)=O)c2)CO3)c1` [Compound 587, 3-((S)-3-((R)-8-(1-ethyl-4-oxo-1,4-dihydropyridin-3-ylsulfonyl)-1-oxa-8-azaspiro[4.5]decan-3-ylamino)-2-hydroxypropoxy)benzenesulfonamide], 2390 nM.

For `CNS(=O)(=O)c1cccc(OC[C@@H](O)CNC2COC3(CCN(S(=O)(=O)c4cccc(-c5cccc(CN)c5)c4)CC3)C2)c1` (stereo partly drawn) [Compound 67, 3-((2S)-3-(8-(3′-(aminomethyl)biphenyl-3-ylsulfonyl)-1-oxa-8-azaspiro[4.5]decan-3-ylamino)-2-hydroxypropoxy)-N-methylbenzenesulfonamide], the 50% inhibitory concentration (IC50) turned out to be 23.1 nM.

As to `CNS(=O)(=O)c1cccc(OC[C@@H](O)CNC2COC3(CCN(S(=O)(=O)c4cccc(-c5ccc(CNCC(F)F)cc5)c4)CC3)C2)c1` (stereo partly drawn) [Compound 339, 3-((2S)-3-(8-(4′-((2,2-difluoroethylamino)methyl)biphenyl-3-ylsulfonyl)-1-oxa-8-azaspiro[4.5]decan-3-ylamino)-2-hydroxypropoxy)-N-methylbenzenesulfonamide], the IC50 amounted to 42.4 nM. For `CNS(=O)(=O)c1cccc(OC[C@@H](O)CNC2COC3(CCN(S(=O)(=O)c4ccc(C(C)(C)C)cc4)CC3)C2)c1` (stereo partly drawn) [Compound 36, 3-((2S)-3-(8-(4-tert-butylphenylsulfonyl)-1-oxa-8-azaspiro[4.5]decan-3-ylamino)-2-hydroxypropoxy)-N-methylbenzenesulfonamide], the IC50 was determined as 13.2 nM. Turning to `CNS(=O)(=O)c1cccc(OC[C@@H](O)CNC2COC3(CCN(S(=O)(=O)c4cccc(-c5cnc(OC)nc5)c4)CC3)C2)c1` (stereo partly drawn) [Compound 108, 3-((2S)-2-hydroxy-3-(8-(3-(2-methoxypyrimidin-5-yl)phenylsulfonyl)-1-oxa-8-azaspiro[4.5]decan-3-ylamino)propoxy)-N-methylbenzenesulfonamide], the IC50 came out at 13.4 nM.

Consider `CNS(=O)(=O)c1cccc(OC[C@@H](O)CN[C@@H]2COC3(CCN(S(=O)(=O)c4cccc(-c5ccc(OCC#N)cc5)c4)CC3)C2)c1` [Compound 297, 3-((S)-3-((S)-8-(4′-(cyanomethoxy)biphenyl-3-ylsulfonyl)-1-oxa-8-azaspiro[4.5]decan-3-ylamino)-2-hydroxypropoxy)-N-methylbenzenesulfonamide], for which the half-inhibitory concentration (IC50) is 15.9 nM. As to `CCCCCNS(=O)(=O)c1cccc(OC[C@@H](O)CNC2COC3(CCN(S(=O)(=O)c4ccc5ccccc5c4)CC3)C2)c1` (stereo partly drawn) [Compound 3, 3-((2S)-2-hydroxy-3-(8-(naphthalen-2-ylsulfonyl)-1-oxa-8-azaspiro[4.5]decan-3-ylamino)propoxy)-N-pentylbenzenesulfonamide], the half-inhibitory concentration (IC50) worked out at 133 nM. For `CNS(=O)(=O)c1cccc(OC[C@@H](O)CNC2COC3(CCN(S(=O)(=O)c4cccc(-c5cc[nH]n5)c4)CC3)C2)c1` (stereo partly drawn) [Compound 84, 3-((2S)-3-(8-(3-(1H-pyrazol-3-yl)phenylsulfonyl)-1-oxa-8-azaspiro[4.5]decan-3-ylamino)-2-hydroxypropoxy)-N-methylbenzenesulfonamide] the value was 9.09 nM.

Regarding `Cc1noc(C)c1S(=O)(=O)N1CCC2(CC1)CC(NC[C@H](O)COc1cccc(S(=O)(=O)N(C)C)c1)CO2` (stereo partly drawn) [Compound 254, 3-((2S)-3-(8-(3,5-dimethylisoxazol-4-ylsulfonyl)-1-oxa-8-azaspiro[4.5]decan-3-ylamino)-2-hydroxypropoxy)-N,N-dimethylbenzenesulfonamide], the IC50 was determined as 97.3 nM.
